# Measured values reported in article PMC12434521, “Characterization of Next-Generation Inhibitors for the Inward-Rectifier Potassium Channel Kir2.1: Discovery of VU6080824” (ACS Medicinal Chemistry Letters, 2025).
# How the values were obtained:
# [1] = biological target: T1, human Kir2.1 (Homo sapiens, UniProt P63252); assay: Kir2.1 thallium flux assay; type: cell-based; conditions: for Thallium Flux Potency IC50 / IC50: T-REx-HEK-293 cells expressing human Kir2.1, 4PL fit, top concentration 30 μM; for Thallium Flux Efficacy (% Inhibition) / Emax: efficacy from 4PL fit, relative to ML133; for IC50: read-out: Thallium Flux Potency IC50; for inhibition at 30 µM: compounds not fitting 4PL (> 10 μM): value at 30 μM relative to 30 μM ML133, read-out: Thallium Flux Efficacy (% Inhibition), 30 μM measured value; for Emax: read-out: Thallium Flux Efficacy (% Inhibition)
# T1 construct: expressed in transfected cells
# T1 sequence (P63252 1-427): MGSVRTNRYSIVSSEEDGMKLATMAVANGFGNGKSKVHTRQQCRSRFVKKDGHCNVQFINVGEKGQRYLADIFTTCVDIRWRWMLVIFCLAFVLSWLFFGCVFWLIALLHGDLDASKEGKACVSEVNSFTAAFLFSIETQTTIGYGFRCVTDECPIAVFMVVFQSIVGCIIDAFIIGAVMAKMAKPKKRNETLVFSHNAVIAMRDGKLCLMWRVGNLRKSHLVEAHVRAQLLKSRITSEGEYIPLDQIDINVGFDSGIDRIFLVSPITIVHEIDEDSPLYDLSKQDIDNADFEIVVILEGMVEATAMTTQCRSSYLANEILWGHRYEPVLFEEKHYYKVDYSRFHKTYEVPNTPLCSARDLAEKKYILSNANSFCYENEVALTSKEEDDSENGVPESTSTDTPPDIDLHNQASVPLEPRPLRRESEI
# Description: Thallium Flux Assay Experimental Conditions
# The Tl+ flux assays were conducted as previously described with modifications optimized for Kir2.1 cell line as described below.1
# Briefly, stable T-REx-HEK-293 cells expressing human K ir2.1 were cultured in DMEM growth medium (Catalog #11965-092, Gibco, Billings, MT) containing 10% heat-inactivated FBS (Catalog #16140, Gibco), 100 U/mL PenStrep, 5 μg/mL Blasticidin S, and 250 μg/mL Hygromycin.
# The day prior to the experiment, cells at ~90% confluency were resuspended in plating media, which consisted of the same components as the growth media, except that heat-inactivated FBS was replaced with dialyzed FBS (Catalog #26400, Gibco). Tetracycline was added to the plating media to achieve a final concentration of 1 μg/ml to induce hKir2.1 expression. Cells were then counted and plated at 15,000 cells/well in black-walled, amine- or PDL- coated, 384-well plates at 20 μl/well (Corning, Corning, NY). On the day of experiment, the media was removed from the cell plate and replaced with 20 μl/well of Tl+-sensitive dye loading solution containing 2.5 μg/ml Thallos-AM (Catalog #11000-050, ION Biosciences, San Marcos, TX) in assay buffer using a Multidrop Combi dispenser (Thermo Fisher Scientific, Walkham, MA). Cell plates loaded with dye solution were incubated for 1 hour at room temperature. Following incubation, the cell plate was washed with HBSS assay buffer containing 20 mM HEPES using a BioTek ELx 405 TS plate washer (Agilent, Santa Clara, CA), leaving 20 μl of assay buffer in each well. The cell plate was then transferred to a Panoptic kinetic imaging plate reader (WaveFront Biosciences, Franklin, TN) for imaging at 1 Hz, 482/35 nm excitation and 536/40 nm emission for 10 seconds. Following this, 20 μl/well of HBSS assay buffer containing test compounds at 2-fold over their final concentrations were added and imaging continued for another eight minutes, after which 10 μl/well of chloride-free Tl+ stimulus solution was added (Catalog #11000-050, ION Biosciences). The final Tl2SO4 concentration in cell plate post-Tl+ stimulus solution addition was 0.25 mM. Images were collected for an additional two minutes. A ten-point concentration series from 30 μM to 2 nM with a 1:3 dilution factor was generated using an Echo liquid handler 650 (Labcyte, San Jose, CA). Final DMSO concentration, 0.3% (v/v) in the assay was constant across all compound concentrations.
# The initial slopes of the Tl+-induced fluorescence changes were fit to a four-parameter logistic equation using our in-house software Waveguide to determine potency and efficacy values. […]
# Bauer, J. A.; Days, E. L.; Lindsley, C. […]
# [2] = Rat PK PBL cassette (i.v.); type: in vivo, Sprague-Dawley rat; conditions: Sprague-Dawley, iv, male SD rat, 0.2 mg/kg i.v. cassette
# Excerpt: While ML133 has found use as a Kir2.1 tool molecule across many disease models, the in vivo PK of this and related compounds within the dibenzylamine chemotype have not previously been characterized. As a highly efficient method for profiling the PK of a compound set, we therefore examined ML133 (alongside 9 additional next-generation Kir2.1 inhibitors) in our rat PK PBL cassette dosing platform (Table ). − From this experimental setup, administration of a 4-compound bolus dose, plus a standard control, can be used to determine a variety of PK parameters in a high-throughput fashion. Specifically, Sprague–Dawley (SD) rats were given 0.2 mg/kg of each Kir2.1 inhibitor (i.v. dosing, 4 compounds +1 control, total dose 1 mg/kg) with PK measured across set time points up to 24 h. Additionally, a separate cohort of animals was utilized to assess total plasma-brain levels (PBL, ratio reported as Kp) of compound at a 0.25 time point. In this fashion, standard plasma-based PK parameters (elimination t 1/2, […] (MRT), plasma clearance (CLp), and volume of distribution (Vss)) were measured alongside a parallel assessment of total brain exposure.
# PK PBL Cassette Experimental Conditions
# 4 compounds plus one control were formulated as a solution in ethanol, PEG400, and DMSO (1:3:6 v/v, respectively) at a concentration of 1 mg/mL and administered as a single IV dose (1 mL/kg, 0.2 mg/kg per compound, total 1 mg/kg) to male, Sprague Dawley rats (n = 1) via injection into a surgically -implanted jugular vein catheter. Blood samples were collected serially from a surgically implanted carotid artery catheter in each animal over multiple post -administration time points (0.033, 0.117, 0.25, 0.5, 1, 2, 4, 7, and 24 hours) into chilled, K 2EDTA anticoagulant - fortified tubes and immediately placed on wet ice. The blood samples were then centrifuged (1700 rcf, 5 minutes, 4 °C) to ob tain plasma samples, which were stored at -80 °C until analysis […]
# For determination of the brain over plasma ratio (K p), the same cassette of compounds plus control were formulated in ethanol, PEG400, and DMSO (1:3:6 v/v, respectively) and administered as a single IV dose (1 mL/kg, 0.2 mg/kg per compound, total 1 mg/kg) to male, Sprague Dawley rats ( n = 1) via injection into a surgically-implanted jugular vein catheter. At 15 min post dosing, blood sample was collected terminally into chilled, K 2EDTA anticoagulant-fortified tube and immediately placed on wet ice. The bloo d sample was then centrifuged (1700 rcf, 5 minutes, 4 °C) to obtain plasma sample. At the same post-administration time point, whole brain sample was obtained by rapid dissection, rinsed with PBS, and immediately frozen in individual tissue collection box (dry ice). All brain and plasma samples were stored at -80 °C until […]
# Samples preparation for bioanalysis
# Plasma samples from the in-life phase of the study were thawed at ambient temperature (benchtop), and then aliquots (20 µL per sample) were transferred to a 96-shallow-well (V-bottom) plate. Matrix-matched quality control (QC) samples and a standard curve of each analyte (1 mg/mL DMSO stock solution) were prepared in blank rat plasma (K2EDTA-treated) via serial dilution and transferred (20 µL each) to the plate along with multiple blank plasma samples. MeCN (120 µL) containing IS (10 nM carbamazepine) was added to each well of the plate to precipitate protein. The plate was then centrifuged (4000 rcf, 5 minutes, ambient temperature), and resulting supernatants (60 µL each) were transferred to a new 96-shallow-well (V-bottom) plate containing an equal volume (60 µL per well) of water (Milli-Q purified). The plate was then sealed in preparation for LC-MS/MS analysis.
# Preparation of brain samples was identical to that of plasma samples except for the following modifications. While thawing, brains were weighed (inside their collection boxes using a universal empty collection box tare weight) and then subjected to mechanical homogenization […]
Thallium Flux Potency IC50 [1],Thallium Flux Efficacy (% Inhibition) [1],IC50 [1],inhibition at 30 µM [1],SMILES,further results
inactive,inactive,,,COc1ccc(CNCc2nccc3ccccc23)cc1 [Compound 5a],
,,> 10 µM,88%,N#Cc1ccc(CNCc2cccc3ccccc23)cc1 [Compound 3b],
,,10.8 µM,,COc1ccc(CNCc2ccc(-c3cccnc3)cc2)cc1 [Compound 5m],Emax [1]: 98%
,,8.5 µM,,COc1ccc(CNCc2ccc(-c3cccc(C)c3)cc2)cc1 [Compound 5r],"Emax [1]: 99%; Kp at 0.25 h ([2]; brain and plasma, 0.25 time point (15 min post dosing), read-out: Kp (total brain to plasma ratio)): 2.29; AUC ([2]; plasma, n = 1, read-out: AUC): 162 ng·h/mL; clearance ([2]; plasma, n = 1, read-out: CLp): 20.6 mL/min/kg; half-life ([2]; plasma, n = 1, read-out: Elim. t1/2 (converted)): 104 min; MRT ([2]; plasma, n = 1, read-out: MRT): 1.31 h; Vd ([2]; plasma, n = 1, read-out: Vss): 1.62 L/kg"
inactive,inactive,,,COCCOc1ccc(CNCc2cccc3ccccc23)cc1 [Compound 3j],
,,> 10 µM,45%,FC(F)Oc1ccc(CNCc2cccc3ccccc23)cc1 [Compound 3a],
inactive,inactive,,,O=S1(=O)CCCN1c1ccc(CNCc2cccc3ccccc23)cc1 [Compound 3k],
inactive,inactive,,,COc1ccc(CNCc2ccc(N3CCCCS3(=O)=O)cc2)cc1 [Compound 5z],
,,> 10 µM,46%,COc1ccc(CNCc2ccc(N3CCCCCC3)cc2)cc1 [Compound 5x],
inactive,inactive,,,COc1ccc(CNCc2cccc3ncccc23)cc1 [Compound 5d],
,,12.5 µM,,COc1ccc(CNCc2ccc(-c3ccncc3)cc2)cc1 [Compound 5n],Emax [1]: 98%
inactive,inactive,,,COc1ccc(CNCc2cccc3c2OC(F)(F)O3)cc1 [Compound 5g],
inactive,inactive,,,CP(C)(=O)c1ccc(CNCc2cccc3ccccc23)cc1 [Compound 3l],
,,> 10 µM,90%,COc1ccc(CNCc2ccc(-c3ccccn3)cc2)cc1 [Compound 5l],
,,> 10 µM,50%,Cc1cc(C)n(-c2ccc(CNCc3cccc4ccccc34)cc2)n1 [Compound 3e],
,,> 10 µM,96%,COc1ccc(CNCc2ccc(N3CCCC3)cc2)cc1 [Compound 5v],
inactive,inactive,,,COc1ccc(CNCc2ccc(-c3cnn(C)c3)cc2)cc1 [Compound 5u],
,,> 10 µM,75%,COc1ccc(CNCc2ccnc3ccccc23)cc1 [Compound 5e],
,,> 10 µM,45%,COc1ccc(CNCc2cccc3cnccc23)cc1 [Compound 5c],
inactive,inactive,,,COc1ccc(CNCc2ccc(N3CCOCC3)cc2)cc1 [Compound 5y],
inactive,inactive,,,O=C1CCCN1c1ccc(CNCc2cccc3ccccc23)cc1 [Compound 3d],
inactive,inactive,,,COc1ccc2c(c1)CCN(Cc1cccc3ccccc13)C2 [Compound 3g],
,,> 10 µM,53%,COc1ccc(CNCc2ccc(N3CCCCC3)cc2)cc1 [Compound 5w],
,,9.3 µM,,COc1ccc(CNCc2ccc(-c3ccc(F)cc3)cc2)cc1 [Compound 5q],Emax [1]: 99%
,,10.7 µM,,COc1ccc(CNCc2ccc(-c3ccccc3F)cc2)cc1 [Compound 5o],Emax [1]: 102%
inactive,inactive,,,c1ccc2c(c1)CN(Cc1cccc3ccccc13)CCO2 [Compound 3h],
inactive,inactive,,,FS(F)(F)(F)(F)c1ccc(CNCc2cccc3ccccc23)cc1 [Compound 3c],
inactive,inactive,,,OCc1ccc(CNCc2cccc3ccccc23)cc1 [Compound 3f],
inactive,inactive,,,COc1ccc(CNCc2cccn3ccnc23)cc1 [Compound 5f],
